Test results taken from patent US20190010139A1 (priority 2015, published 2019).
Like-named read-outs stand apart in the source and are kept apart here.

System: NL-RLuc virus
Experiment: Inhibition of HIV replication (NL-RLuc luciferase reporter virus in MT-2 cells)
Type: cell-based
Conditions: Human immunodeficiency virus 1, MT2, 120 h
Excerpt: Inhibition of HIV Replication:
A recombinant NL-RLuc proviral clone was constructed in which a section of the nef gene from NL4-3 was replaced with the Renilla Luciferase gene. This virus is fully infectious and can undergo multiple cycles of replication in cell culture. In addition, the luciferous reporter provides a simple and easy method for quantitating the extent of virus growth and consequently, the antiviral activity of test compounds. The plasmid pNLRLuc contains the proviral NL-Rluc DNA cloned into pUC 18 at the PvuII site. The NL-RLuc virus was prepared by transfection of 293T cells with the plasmid pNLRLuc. Transfections were performed using the LipofectAMINE PLUS kit from Invitrogen (Carlsbad, Calif.) according to the manufacturer and the virus generated was titered in MT-2 cells. For susceptibility analyses, the titrated virus was used to infect MT-2 cells in the presence of compound, and after 5 days of incubation, cells were processed and quantitated for virus growth by the amount of expressed luciferase. Assay media was RPMI 1640 supplemented with 10% heat inactivated fetal bovine serum (FBS), 100 units/ml penicillin G/100 units/ml streptomycin, 10 mM HEPES buffer pH 7.55 and 2 mM L-glutamine. The results from at least 2 experiments were used to calculate the EC50 values. Luciferase was quantitated using the Dual Luciferase kit from Promega (Madison, Wis.). Susceptibility of viruses to compounds was determined by incubation in the presence of serial dilutions of the compound. The 50% effective concentration (EC50) was calculated by using the exponential form of the median effect equation where (Fa)=1/[1+(ED50/drug conc.)^m](Johnson V A, Byington R T. Infectivity Assay. In Techniques in HIV Research. ed. Aldovini A, Walker B D. 71-76. New York: Stockton Press.1990). Activity equal to A refers to a compound having an EC50≤100 nM, while B and C denote compounds having an EC50 between 100 nM and 1 uM (B) or >1 uM (C).

Work on `Cc1nc(C)c([C@H](OC(C)(C)C)C(=O)O)c(N2CCC3(CCCC3)CC2)c1-c1ccc(C(=O)NCc2ccccc2)c(F)c1` [Example 24, (S)-2-(5-(4-(Benzylcarbamoyl)-3-fluorophenyl)-2,6-dimethyl-4-(8-azaspiro[4.5]decan-8-yl)pyridin-3-yl)-2-(tert-butoxy)acetic acid] yielded an EC50 (read-out: Activity) of less than 0.1 µM.

`Cc1nc(CO)c(-c2ccc(OCCc3ccc(F)cc3)cc2)c(N2CCC3(CCC3)CC2)c1[C@H](OC(C)(C)C)C(=O)O` [Example 38, (S)-2-(tert-Butoxy)-2-(5-(4-(4-fluorophenethoxy)phenyl)-6-(hydroxymethyl)-2-methyl-4-(7-azaspiro[3.5]nonan-7-yl)pyridin-3-yl)acetic acid] showed an EC50 (read-out: Activity) of less than 0.1 µM.

In the case of `Cc1nc(C)c([C@H](OC(C)(C)C)C(=O)O)c(N2CCCC3(CCCC3)C2)c1-c1ccc(C(=O)NCc2ccccc2)cc1` [Example 19, (S)-2-(5-(4-(Benzylcarbamoyl)phenyl)-2,6-dimethyl-4-(7-azaspiro[4.5]decan-7-yl)pyridin-3-yl)-2-(tert-butoxy)acetic acid], the EC50 (read-out: Activity) is reported as 0.1 to 1 µM.

Work on `Cc1nc(C)c([C@H](OC(C)(C)C)C(=O)O)c(N2CC[C@H]3CCCC[C@@H]3C2)c1-c1ccc(OCCc2ccc(F)cc2)cc1` [Example 12, (S)-2-(tert-Butoxy)-2-(5-(4-(4-fluorophenethoxy)phenyl)-2,6-dimethyl-4-((4aR,8aS)-octahydroisoquinolin-2(H)-yl)pyridin-3-yl)acetic acid] yielded an EC50 (read-out: Activity) of less than 0.1 µM.

`Cc1nc(CN2CCOCC2)c(-c2ccc(OCCc3ccc(F)cc3)cc2)c(N2CCC3(CCC3)CC2)c1[C@H](OC(C)(C)C)C(=O)O` [Example 54, (S)-2-(tert-Butoxy)-2-(5-(4-(4-fluorophenethoxy)phenyl)-2-methyl-6-(morpholinomethyl)-4-(7-azaspiro[3.5]nonan-7-yl)pyridin-3-yl)acetic acid] was tested, and the EC50 (read-out: Activity) was less than 0.1 µM.

For `Cc1nc(CNC2CCOCC2)c(-c2ccc(OCCc3ccc(F)cc3)cc2)c(N2CCC3(CCC3)CC2)c1[C@H](OC(C)(C)C)C(=O)O` [Example 55, (S)-2-(tert-Butoxy)-2-(5-(4-(4-fluorophenethoxy)phenyl)-2-methyl-4-(7-azaspiro[3.5]nonan-7-yl)-6-(((tetrahydro-2H-pyran-4-yl)amino)methyl)pyridin-3-yl)acetic acid], the EC50 (read-out: Activity) was less than 0.1 µM and the EC50 (read-out: EC50 μM) was 0.001 µM.

`COCCNCc1nc(C)c([C@H](OC(C)(C)C)C(=O)O)c(N2CCC3(CCC3)CC2)c1-c1ccc(OCCc2ccc(F)cc2)cc1` [Example 42, (S)-2-(tert-Butoxy)-2-(5-(4-(4-fluorophenethoxy)phenyl)-6-(((2-methoxyethyl)amino)methyl)-2-methyl-4-(7-azaspiro[3.5]nonan-7-yl)pyridin-3-yl)acetic acid] gave an EC50 (read-out: Activity) of less than 0.1 µM and an EC50 (read-out: EC50 μM) of 0.002 µM.

In the case of `Cc1nc(CNCC2CCCCC2)c(-c2ccc(OCCc3ccc(F)cc3)cc2)c(N2CCC3(CCC3)CC2)c1[C@H](OC(C)(C)C)C(=O)O` [Example 56, (S)-2-(tert-Butoxy)-2-(6-(((cyclohexylmethyl)amino)methyl)-5-(4-(4-fluorophenethoxy)phenyl)-2-methyl-4-(7-azaspiro[3.5]nonan-7-yl)pyridin-3-yl)acetic acid], the EC50 (read-out: Activity) is reported as less than 0.1 µM.

`Cc1nc(C)c([C@H](OC(C)(C)C)C(=O)O)c(N2CC3CCC2C3)c1-c1ccc(C(=O)NCc2ccccc2)cc1` (stereo partly drawn) [Example 1, (S)-2-(5-(4-(Benzylcarbamoyl)phenyl)-4-(2-azabicyclo[2.2.1]heptan-2-yl)-2,6-dimethylpyridin-3-yl)-2-(tert-butoxy)acetic acid] gave an EC50 (read-out: Activity) of 0.1 to 1 µM and an EC50 (read-out: EC50 μM) of 0.446 µM.

For `Cc1nc(COCC2CCOCC2)c(-c2ccc(OCCc3ccc(F)cc3)cc2)c(N2CCC3(CCC3)CC2)c1[C@H](OC(C)(C)C)C(=O)O` [Example 51, (S)-2-(tert-Butoxy)-2-(5-(4-(4-fluorophenethoxy)phenyl)-2-methyl-4-(7-azaspiro[3.5]nonan-7-yl)-6-(((tetrahydro-2H-pyran-4-yl)methoxy)methyl)pyridin-3-yl)acetic acid], the EC50 (read-out: Activity) was less than 0.1 µM.

`Cc1nc(C)c([C@H](OC(C)(C)C)C(=O)O)c(N2CC[C@H]3CCCC[C@@H]3C2)c1-c1ccc(C(=O)NCc2ccccc2)cc1` [Example 13, (S)-2-(5-(4-(Benzylcarbamoyl)phenyl)-2,6-dimethyl-4-((4aR,8aS)-octahydroisoquinolin-2(1H)-yl)pyridin-3-yl)-2-(tert-butoxy)acetic acid] gave an EC50 (read-out: Activity) of less than 0.1 µM.

With `Cc1nc(C)c([C@H](OC(C)(C)C)C(=O)O)c(N2CCC3(CCCC3)CC2)c1-c1ccc2c(c1)CCN(Cc1ccccc1F)C2` [Example 26, (S)-2-(tert-Butoxy)-2-(5-(2-(2-fluorobenzyl)-1,2,3,4-tetrahydroisoquinolin-6-yl)-2,6-dimethyl-4-(8-azaspiro[4.5]decan-8-yl)pyridin-3-yl)acetic acid] the EC50 (read-out: Activity) was less than 0.1 µM.

Molecule `Cc1nc(C)c([C@H](OC(C)(C)C)C(=O)O)c(N2CCC3(CCCCCC3)C2)c1-c1ccc(C(=O)NCc2ccccc2)cc1` [Example 65, (S)-2-(5-(4-(Benzylcarbamoyl)phenyl)-2,6-dimethyl-4-(2-azaspiro[4.6]undecan-2-yl)pyridin-3-yl)-2-(tert-butoxy) acetic acid] has an EC50 (read-out: Activity) of less than 0.1 µM.

In the case of `Cc1nc(C)c([C@H](OC(C)(C)C)C(=O)O)c(N2CCC3(CCC3)CC2)c1-c1ccc(OCCc2ccc(F)cc2)cc1` [Example 27, (S)-2-(tert-Butoxy)-2-(5-(4-(4-fluorophenethoxy)phenyl)-2,6-dimethyl-4-(7-azaspiro[3.5]nonan-7-yl)pyridin-3-yl)acetic acid], the EC50 (read-out: Activity) is reported as less than 0.1 µM.

`Cc1nc(C)c([C@H](OC(C)(C)C)C(=O)O)c(N2CCC3(CCCCC3)CC2)c1-c1ccc(OCCc2ccc(F)cc2)cc1` [Example 60, (S)-2-(tert-Butoxy)-2-(5-(4-(4-fluorophenethoxy)phenyl)-2,6-dimethyl-4-(3-azaspiro[5.5]undecan-3-yl)pyridin-3-yl)acetic acid] gave an EC50 (read-out: Activity) of less than 0.1 µM.

With `Cc1nc(C)c([C@H](OC(C)(C)C)C(=O)O)c(N2CCc3ccccc3C2)c1-c1ccc(OCCc2ccc(F)cc2)cc1` [Example 2, (S)-2-(tert-Butoxy)-2-(4-(3,4-dihydroisoquinolin-2(1H)-yl)-5-(4-(4-fluorophenethoxy)phenyl)-2,6-dimethylpyridin-3-yl)acetic acid] the EC50 (read-out: EC50 μM) was 0.036 µM.

`Cc1nc(CN2CCCC2)c(-c2ccc(OCCc3ccc(F)cc3)cc2)c(N2CCC3(CCC3)CC2)c1[C@H](OC(C)(C)C)C(=O)O` [Example 44, (S)-2-(tert-Butoxy)-2-(5-(4-(4-fluorophenethoxy)phenyl)-2-methyl-6-(pyrrolidin-1-ylmethyl)-4-(7-azaspiro[3.5]nonan-7-yl)pyridin-3-yl)acetic acid] gave an EC50 (read-out: Activity) of less than 0.1 µM.

With `Cc1nc(C)c([C@H](OC(C)(C)C)C(=O)O)c(N2CCC3(CC2)CC3)c1-c1ccc(OCCc2ccc(F)cc2)cc1` [Example 16, (S)-2-(tert-Butoxy)-2-(5-(4-(4-fluorophenethoxy)phenyl)-2,6-dimethyl-4-(6-azaspiro[2.5]octan-6-yl)pyridin-3-yl)acetic acid] the EC50 (read-out: Activity) was less than 0.1 µM and the EC50 (read-out: EC50 μM) was 0.003 µM.

In the case of `Cc1nc(C)c([C@H](OC(C)(C)C)C(=O)O)c(N2CCC3(CCC3)CC2)c1-c1ccc(OCC(C)(C)c2ccc(F)cc2)cc1` [Example 28, (S)-2-(tert-butoxy)-2-(5-(4-(2-(4-fluorophenyl)-2-methylpropoxy)phenyl)-2,6-dimethyl-4-(7-azaspiro[3.5]nonan-7-yl)pyridin-3-yl)acetic acid], the EC50 (read-out: Activity) is reported as less than 0.1 µM.

`Cc1nc(CN(C)CC2CCOCC2)c(-c2ccc(OCCc3ccc(F)cc3)cc2)c(N2CCC3(CCC3)CC2)c1[C@H](OC(C)(C)C)C(=O)O` [Example 46, (S)-2-(tert-Butoxy)-2-(5-(4-(4-fluorophenethoxy)phenyl)-2-methyl-6-((methyl((tetrahydro-2H-pyran-4-yl)methyl)amino)methyl)-4-(7-azaspiro[3.5]nonan-7-yl)pyridin-3-yl)acetic acid] gave an EC50 (read-out: Activity) of less than 0.1 µM.

In the case of `Cc1nc(C)c([C@H](OC(C)(C)C)C(=O)O)c(N2CCCC3(CCCC3)C2)c1-c1ccc(OCCc2ccc(F)cc2)cc1` [Example 18, (S)-2-(tert-Butoxy)-2-(5-(4-(4-fluorophenethoxy)phenyl)-2,6-dimethyl-4-(7-azaspiro[4.5]decan-7-yl)pyridin-3-yl)acetic acid], the EC50 (read-out: Activity) is reported as 0.1 to 1 µM and the EC50 (read-out: EC50 μM) is reported as 0.475 µM.

In the case of `Cc1cccc(F)c1CN1CCc2cc(-c3c(C)nc(C)c([C@H](OC(C)(C)C)C(=O)O)c3N3CCC4(CCC4)CC3)ccc2C1` [Example 34, (S)-2-(tert-Butoxy)-2-(5-(2-(2-fluoro-6-methylbenzyl)-1,2,3,4-tetrahydroisoquinolin-6-yl)-2,6-dimethyl-4-(7-azaspiro[3.5]nonan-7-yl)pyridin-3-yl)acetic acid], the EC50 (read-out: Activity) is reported as less than 0.1 µM.

In the case of `Cc1nc(C)c([C@H](OC(C)(C)C)C(=O)O)c(N2CCC3(CCCC3)C2)c1-c1ccc(C(=O)NCc2ccccc2)cc1` [Example 15, (S)-2-(5-(4-(Benzylcarbamoyl)phenyl)-2,6-dimethyl-4-(2-azaspiro[4.4]nonan-2-yl)pyridin-3-yl)-2-(tert-butoxy)acetic acid], the EC50 (read-out: Activity) is reported as less than 0.1 µM.
